# Data taken from patent publication US20100286762A1, “Compositions and Methods for Ameliorating Clinical Electrical Disturbances” (MUSC Foundation for Research Development, priority 2009, published 2010).
# Entries after “also recorded” stand apart in the source; their conditions may differ.
# How the values were obtained:
# cryoinjured mouse hearts [1] = test: Arrhythmia induction (S2-S3 premature beat protocol, overdrive pacing) in Langendorff-perfused hearts one week after cryoinjury; assay type: in vivo
# Method: Following cryoinjury by application of 3 mm liquid nitrogen chilled probe hearts in anesthetized mice were treated with a methycellulose patch containing either ˜9 ug of ACT1 peptide, ˜9 ug of reverse control peptide or no peptide (vehicle control). Mice were then allowed to recover for a week. A week following the injury, Langherdorf-perfused hearts from the mice were subject to 2 types of electrical stimulation inducing arrhythmia: a) S2-S3 premature beat protocol and b) Overdrive pacing. Electrical recordings were made and induced arrhythmic behaviors were categorized including delayed after depolarizations, ectopic beats, ventricular tachycardia, and ventricular fibrillation. […] Severity was graded according to the electrical abnormality noted (e.g. ventricular tachycardia was scored lower than ventricular fibrillation) and the persistence of the electrical abnormality (e.g. intermittent tachycardia was scored lower than persistent tachycardia). […] A similar trend is seen in response to overdrive pacing, although in this case the difference between the treatment and controls are not significant at p=0.05. The “All control” group represents pooled reverse and vehicle control counts.
# cryoinjured mouse hearts [2] = settings: formulation applied coincident with cryo-infarction; 1 week following the injury; O'Quinn et al., Circulation, 2008; cited from earlier work
# [3] = test system: Cx43 hemichannel in HeLa Cx43 cells; test: Connexon channel (hemichannel) function by EtdBr uptake in live cells; assay type: cell-based
# Method: Functional and biochemical assays were used to assess whether the predicted reduction in free-membrane connexons occurs. First, connexon channel (hemichannel) function was assayed using EtdBr uptake in live cells as described by Saez and co-workers. […] In a variant of this experiment, the cells were also cultured at low density such that no GJs could form. Again consistent with the model, in the absence of GJs for free connexons in the membrane to be recruited to, ACT1 had no affect (FIG. 2).
# NVRM / NCRF aggregates = test: Mixed aggregate culture of CellTracker-tagged fibroblasts and myocytes; assay type: cell-based, rat; settings: relative to control aggregates
# Method: (§1) FIGS. 4A-4F show ZO-1 regulation of differential adhesion between Cx43 expressing cells. A. Segregation of Cx43-GFP cells from DiI-labeled HeLa Cx43 cells. […] C and D. Cohesion patterns of orange-tagged NVRMs from green-tagged NCRFs following control (top) or ACT1ACT1 (bottom) incubation. […] Scale A=5 um, C, D=25 um.
# (§2) In another approach neonatal rat ventricular myocytes (NVRMs) were cultured as monolayers and the propensity of added dispersed NCRFs to adhere to this layer was measured. […] In the second approach, green CellTracker-tagged fibroblasts are mixed with orange CellTracker-tagged myocytes and cultured as aggregates (FIG. 4C,D). […] Disclosed herein, and supported by the disclosed data, the regulation of connexon aggregation via ZO-1 PDZ2 can dynamically adjust the level of differential adhesivity between cells in heterocellular contacts (e.g., fibroblasts and myocytes).
# [4] = test system: HeLa cells expressing wt Cx43; test: Scrape loading assay of GJ intercellular communication (GJIC); assay type: cell-based; settings: relative to control and parental non-connexin expressing cells, p<0.05
# From the text: It has been previously shown that inhibition of ZO-1 interaction with Cx43 increases GJ size in HeLa Cx43 and increases the proportion of Triton-insoluble-Cx43 in GJs, without altering Cx43 expression levels or turnover (Hunter et al., 2005). Based on this and other data, it was proposed that ZO-1 inhibits the transition from non-junctional and gap junctional Cx43 (Hunter et al. 2005). The question of where ZO-1 exerted this control to this point is unknown. Here, it is disclosed that ZO-1 regulates movement of connexons in the plasma membrane into GJs. FIG. 1 outlines how this works. The model disclosed herein predicts that inhibiting Cx43/ZO-1 interaction will result in an increase in GJ intercellular communication (GJIC) and a complementary decrease of free-membrane connexons. The well-characterized “scrape loading” technique was used to assess GJIC in HeLa cells expressing wt Cx43.
# [5] = test system: neonatal rat ventricular myocytes (NVRMs) monolayers and NCRFs; test: Adherence of dispersed fibroblasts (NCRFs) to myocyte (NVRM) monolayers; assay type: cell-based; settings: 48 hr timecourse
# Method: as §1, §2
# [6] = S2-S3 premature beat protocol, methycellulose patch ~9 ug peptide at cryoinjury, hearts tested a week later
# [7] = overdrive pacing, methycellulose patch ~9 ug peptide at cryoinjury, hearts tested a week later
substance,measurement,setting,value
"ACT1: Cx43 CT sequence RPRPDDLEI (SEQ ID NO:1), can be attached to antennapedia sequence: RQPKIWFPNRRKPWKK RPRPDDLEI (SEQ ID NO3) (optionally antennapedia sequence; UniProt P17302 374-382, looked up, fragment)",S2-S3 Protocol Arrhythmic (numbers of mice displaying an arrhythmia response),cryoinjured mouse hearts [1]; [6],1
same,S2-S3 Protocol Stable (numbers of mice),cryoinjured mouse hearts [1]; [6],6
same,Overdrive Pacing Arrhythmia (numbers of mice displaying an arrhythmia response),cryoinjured mouse hearts [1]; [7],2
same,Overdrive Pacing Stable (numbers of mice),cryoinjured mouse hearts [1]; [7],5
same,Arrhythmia Severity Index Mean,"cryoinjured mouse hearts [1]; severity graded by electrical abnormality and its persistence, patch ~9 ug peptide, a week after cryoinjury",1.71
same,electrical stability in response to the S2-S3 arrhythmia induction protocol,"cryoinjured mouse hearts [1]; vs controls, chi squares p=0.05 or below",improved electrical stability
same,arrhythmia susceptibility of heart after cryo-infarction to the ventricle,cryoinjured mouse hearts [2],renders the heart refractory to arrhythmia-inducing electrophysiological protocols
same,"hemichannel activity (EtdBr uptake), cells at low density",[3]; cells cultured at low density such that no GJs could form,no affect
same,hemichannel activity (EtdBr uptake),"[3]; contacting HeLa Cx43 cells, relative to controls and non-connexin expressing HeLa cells, p<0.05",significantly decreases EtdBr uptake; also recorded: decreased hemichannel activity
same,exclusion/loss of NCRFs from aggregates,NVRM / NCRF aggregates,increased exclusion/loss of NCRFs
same,segregation of myocytes and fibroblasts in aggregates / cohesion index (% co-localization orange and green) of NVRMs,NVRM / NCRF aggregates,tend to segregate into cohesive domains of like cells
same,exclusion/loss of NCRFs from aggregates,NVRM / NCRF aggregates; listed as ACT1ACT1,Fibroblasts are excluded more
same,segregation of myocytes and fibroblasts in aggregates / cohesion index (% co-localization orange and green) of NVRMs,NVRM / NCRF aggregates; listed as ACT1ACT1,is higher
same,GJ intercellular communication (GJIC),[4],significantly increased GJIC
same,adherence of NCRFs to NVRM monolayers,[5],decreased the adherence
same,adherence of NCRFs to NVRM monolayers,[5]; listed as ACT1ACT1,reduction in fibroblast (NCRF) adhesion
